Test results taken from patent publication US20160158200A1, “Combinations of Hepatitis C Virus Inhibitors” (priority 2013, published 2016).

These compounds were tested on HCV genotype-1a variant with glutamine 30 changed to glutamate in the NS5A protein. Settings: test compound titrated with BMS-790052 fixed at 200 nM; genotype 1a Q30E replicon.
Format: cell-based
In short: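 Synergy was assessed by combining several fixed amounts of an NS5A-targeting compound with a titration of the second compound of interest.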

| Compound | Fold-Synergistic 1a (Q30E) [fold] |
| --- | --- |
| COC(=O)N[C@H](C(=O)N1CCC[C@H]1c1nc(-c2ccc(-c3ccc(-c4c[nH]c([C@@H](NC(=O)C5CCC(F)(F)CC5)C(C)C)n4)cc3)cc2)c[nH]1)C(C)C [Compound Y-49] | >100 |
| CC(C)(C)OC(=O)N1C2CCC1(C(=O)N[C@H](c1nc(-c3ccc(-c4ccc(-c5c[nH]c([C@@H](NC(=O)C67CCC(CC6)N7C(=O)OC(C)(C)C)C(C)(C)C)n5)cc4)cc3)c[nH]1)C(C)(C)C)CC2 [Compound W-85] | >100 |
| CC(C)[C@H](NC(=O)C1CC(=O)C1)c1nc(-c2ccc(-c3ccc(-c4c[nH]c([C@@H](NC(=O)C5CC(=O)C5)C(C)C)n4)cc3)cc2)c[nH]1 [Compound W-172] | >10 |
| CC(C)(C(=O)N[C@H](c1nc(-c2ccc(-c3ccc(-c4c[nH]c([C@@H](NC(=O)C(C)(C)C(O)C5CCC(F)(F)CC5)C(C)(C)C)n4)cc3)cc2)c[nH]1)C(C)(C)C)C(O)C1CCC(F)(F)CC1 (single isomer, unassigned) [Compound N-143A] | >100 |
| CC(C)C(C)(C)C(=O)N[C@H](c1ncc(-c2ccc(-c3ccc(-c4cnc([C@@H](NC(=O)C(C)(C)C(C)C)C(C)(C)C)[nH]4)cc3)cc2)[nH]1)C(C)(C)C [Compound B88] | >100 |
| COC(C)(COCc1ccccc1)C(=O)N[C@H](c1nc(-c2ccc(-c3ccc(-c4c[nH]c([C@@H](NC(=O)C(C)(COCc5ccccc5)OC)C(C)(C)C)n4)cc3)cc2)c[nH]1)C(C)(C)C.O=C(O)C(F)(F)F.O=C(O)C(F)(F)F (single isomer, unassigned) [Compound W-230] | >100 |
| CC(C)(C)[C@H](NC(=O)C1CCCOC1)c1nc(-c2ccc(-c3ccc(-c4c[nH]c([C@@H](NC(=O)C5CCCOC5)C(C)(C)C)n4)cc3)cc2)c[nH]1 (stereo partly shown) [Compound W-131] | >100 |
| CC(C)(C)[C@H](Nc1nc(Cl)c(Cl)s1)c1nc(-c2ccc(-c3ccc(-c4c[nH]c([C@@H](Nc5nc(Cl)c(Cl)s5)C(C)(C)C)n4)cc3)cc2)c[nH]1 [Compound W-179] | >10 |
| CC(C)(C)[C@H](NC(=O)C1(C(O)c2ccccc2)CC1)c1nc(-c2ccc(-c3ccc(-c4c[nH]c([C@@H](NC(=O)C5(C(O)c6ccccc6)CC5)C(C)(C)C)n4)cc3)cc2)c[nH]1 (single isomer, unassigned) [Compound N-126B] | >100 |
| COC(=O)NN(C(=O)[C@@H]1CCC[C@H]1c1nc(-c2ccc(-c3ccc(-c4cnc([C@@H]5CCC[C@H]5C(=O)N(NC(=O)OC)C(C)C)[nH]4)cc3)cc2)c[nH]1)C(C)C [Compound V-1] | >100 |
| CC(C)(C)[C@H](NC(=O)C1CCC(F)(F)CC1)c1nc(-c2ccc(-c3ccc4c(c3)CCc3nc([C@@H](NC(=O)C5CCC(F)(F)CC5)C(C)(C)C)[nH]c3-4)cc2)c[nH]1 [Compound B10] | >100 |
| COC(=O)N[C@H]1CCN([C@H](c2ncc(-c3ccc(-c4ccc(-c5cnc([C@H](C(C)C)N6CC[C@H](NC(=O)OC)C6=O)[nH]5)cc4)cc3)[nH]2)C(C)C)C1=O.O=C(O)C(F)(F)F.O=C(O)C(F)(F)F [Compound P-53] | <10 |
| CC(C)(C)[C@H](NC(=O)C1(NC(=O)CC2CC2)CCCCC1)c1nc(-c2ccc(-c3ccc(-c4c[nH]c([C@@H](NC(=O)C5(NC(=O)CC6CC6)CCCCC5)C(C)(C)C)n4)cc3)cc2)c[nH]1 [Compound W-276] | >100 |
| CC(C)(C)CCC(=O)N[C@H](c1nc(-c2ccc(-c3ccc(-c4c[nH]c([C@@H](NC(=O)CCC(C)(C)C)C(C)(C)C)n4)cc3)cc2)c[nH]1)C(C)(C)C [Compound N-58] | >100 |
| COC(c1ccccc1)C1(C(=O)N[C@H](c2nc(-c3ccc(-c4ccc(-c5c[nH]c([C@@H](NC(=O)C6(C(OC)c7ccccc7)CC6)C(C)(C)C)n5)cc4)cc3)c[nH]2)C(C)(C)C)CC1 (single isomer, unassigned) [Compound N-137C] | >100 |
| COC(C)(CCO)C(=O)N[C@H](c1nc(-c2ccc(-c3ccc(-c4c[nH]c([C@@H](NC(=O)C(C)(CCO)OC)C(C)(C)C)n4)cc3)cc2)c[nH]1)C(C)(C)C (single isomer, unassigned) [Compound W-259] | >100 |
| CC(C)(C)OC(=O)N1CCC(C)(C)[C@H]1C(=O)N[C@H](c1nc(-c2ccc(-c3ccc(-c4c[nH]c([C@@H](NC(=O)[C@H]5N(C(=O)OC(C)(C)C)CCC5(C)C)C(C)(C)C)n4)cc3)cc2)c[nH]1)C(C)(C)C [Compound W-214] | >100 |
| CN(C)C(=N[C@H](c1ncc(-c2ccc(-c3ccc(-c4cnc([C@@H](NC(=O)C5(C6(O)CCNCC6)CCC5)C(C)(C)C)[nH]4)cc3)cc2)[nH]1)C(C)(C)C)N(C)C [Compound B85] | >10 |
| O=C(C(=O)N1C[C@H](O)C[C@H]1c1nc(-c2ccc(-c3ccc(-c4c[nH]c([C@@H]5C[C@@H](O)CN5C(=O)C(=O)N5CCC(F)(F)CC5)n4)cc3)cc2)c[nH]1)N1CCC(F)(F)CC1 [Compound L-142] | >100 |
| CC1(C(O)C(C)(C)C(=O)N[C@H](c2nc(-c3ccc(-c4ccc(-c5c[nH]c([C@@H](NC(=O)C(C)(C)C(O)C6(C)CC6)C(C)(C)C)n5)cc4)cc3)c[nH]2)C(C)(C)C)CC1 (single isomer, unassigned) [Compound N-151A] | >100 |
| CC(C)[C@H](NC(=O)C(C)(C)C)c1ncc(-c2ccc(-c3ccc(-c4cnc([C@@H](NC(=O)C(C)(C)C)C(C)C)[nH]4)cc3)cc2)[nH]1 [Compound S-34] | >100 |
| CC(C)(C)OC(=O)NC1CCCCC1C(=O)N[C@H](c1nc(-c2ccc(-c3ccc(-c4c[nH]c([C@@H](NC(=O)C5CCCCC5NC(=O)OC(C)(C)C)C(C)(C)C)n4)cc3)cc2)c[nH]1)C(C)(C)C (single isomer, unassigned) [Compound W-23B] | >100 |
| CC(C)(C)OC(=O)NC1CCC(C(=O)N[C@H](c2nc(-c3ccc(-c4ccc(-c5c[nH]c([C@@H](NC(=O)C6CCC(NC(=O)OC(C)(C)C)CC6)C(C)(C)C)n5)cc4)cc3)c[nH]2)C(C)(C)C)CC1 (stereo partly shown) [Compound S-270] | >100 |
| CC(C)(C)C(=O)NC(c1nc(-c2ccc(-c3ccc(-c4c[nH]c(C(NC(=O)C(C)(C)C)C5(C(F)(F)F)CC5)n4)cc3)cc2)c[nH]1)C1(C(F)(F)F)CC1 (single isomer, unassigned) [Compound N-107A] | >100 |
| CCCC(=O)N[C@H](c1ncc(-c2ccc(-c3ccc(-c4cnc([C@@H](NC(=O)CCC)C(C)C)[nH]4)cc3)cc2)[nH]1)C(C)C [Compound S-33] | >100 |
| CC(C)[C@H](NC(=O)c1ccc(F)cc1F)c1ncc(-c2ccc(-c3ccc(-c4cnc([C@@H](NC(=O)c5ccc(F)cc5F)C(C)C)[nH]4)cc3)cc2)[nH]1 [Compound S-89] | >100 |
| CC1(C(=O)NC(c2nc(-c3ccc(-c4ccc(-c5c[nH]c(C(NC(=O)C6(C)CCCCC6=O)C(C)(C)C)n5)cc4)cc3)c[nH]2)C(C)(C)C)CCCCC1=O (mixture of isomers) [Compound Y-98] | >100 |
| CC(C)(C)OC(=O)N1CCCC[C@H]1C(=O)N[C@H](c1nc(-c2ccc(-c3ccc(-c4c[nH]c([C@@H](NC(=O)[C@@H]5CCCCN5C(=O)OC(C)(C)C)C(C)(C)C)n4)cc3)cc2)c[nH]1)C(C)(C)C [Compound L-17] | >100 |
